The values below come from US20230000982A1, “COMPOSITION FOR PREVENTING OR TREATING CANCER, CONTAINING NOVEL TRIFLUOROMETHYL PHENYL PYRAZOLE DERIVATIVE AS ACTIVE INGREDIENT” (KOREA INSTITUTE OF RADIOLOGICAL & MEDICAL SCIENCES, priority 2019, published 2023).

Series [1] concerns breast cancer cell lines BT549, MCF7, T47D and MDA MB231. Briefly: Colonogenic (colony formation) assay. Format: cell-based, Human. The conditions noted are these: 10 μM, cultured for 14 days; various breast cancer cell lines. The protocol: (§1) Human-derived tumor cell lines and breast cancer cell lines MCF7 and T47D, BT549, MDA-MB231, and MDA-MB453 was cultured in a DMEM medium (Corning, N.Y., USA), containing 10% fetal bovine serum (FBS; HyClone, South Logan, Utah) and 1% penicillin/streptomycin at 37° C. and 5% CO2 conditions.
Colonogenic analysis was performed to determine whether the selected KRCT-1 could efficiently kill cancer cells. First, cells of various breast cancer cell lines BT549, MCF7, T47D and MDA MB231 (500-1000 cells) were cultured in a 60 mm culture plate, and 24 hours later, 10 μM of the compound was treated, respectively, and cultured for 14 days.

A further series concerns Breast cancer cells MCF7. Briefly: Tumorsphere forming assay. Format: cell-based, Human. The conditions noted are these: cultured for 14 days; various breast cancer cell lines. The method, then: as §1
In order to determine whether the selected KRCT-1 can effectively reduce the tumorsphere formation in cancer cells, tumorsphere forming assay was performed. Breast cancer cells MCF7 (2500-10000 cells) were suspended in serum-free DMEM/F12 (welGENE), containing 1% penicillin, B-27 (1:50; invitrogen), 20 ng/mL epidermal growth factor (R&D Systems) and 20 ng/mL fibroblasts growth factors (R&D Systems) on low adhesion plates and cultured. After 24 hours had elapsed, the cells were treated with the compound and cultured for 14 days, and then the diameter of the tumorspheres was measured and quantified, which is shown in FIG. 3D.

The subject of another series is BT549 cell line. The experiment in a line: Immunodeficient mouse tumor model (xenograft) transplanted with BT549. Format: in vivo. Conditions: 30 mg/kg intraperitoneally twice a week. The method, then: By subcutaneously implanting a cancer cell line into an immunodeficient mouse tumor model, it was attempted to verify whether the anticancer effect of the compound actually occurs at the in vivo level. After the tumor was formed by implanting the BT549 cell line subcutaneously in the thigh of an immunodeficient mouse, in the case that the size of the tumor reached 50˜100 mm ˜3˜, the compound was intraperitoneally injected at 30 mg/kg twice a week. The tumor volume and the mouse weight were measured 3 times a week for the control group and the KRCT-1 treatment group, respectively. […] Western blotting was performed on the isolated mouse tumor for the tumor growth antigen Ki-67, which is shown B in FIG. 4b.

A further series deals with MCF7. Briefly: Annexin V/PI staining FACS apoptosis analysis, MCF7. The conditions noted are these: MCF7, 20 μM, 48 h. Format: cell-based, Human. The method, then: (§2) After Annexin V/PI staining, FACS analysis was performed to confirm the cancer cell killing effect. Cancer cell lines MCF7 and BT549 were treated for 48 h in the presence and absence of 20 μM of KRCT-1, and analysis of Annexin V binding was performed using the Annexin V-FITC apoptosis Detection Kit (BD Biosciences, San Jose, Calif., USA) according to the manufacturer's recommended protocol. Briefly, after collecting all cells, including the cell medium, the cells were centrifuged at 1500 rpm for 5 minutes, washed with 1×PBS, resuspended at 1×10^6 cell concentration, and then 100 μl of the cell suspension was added in a 5 ml tube, and 5 μl of Annexin V-FITC and 5 μl of PI were added thereto and cultured in the dark for 15 minutes at RT. 400 μl of 1× binding buffer was added to each tube and samples were analyzed by flow cytometry. As a result, it was confirmed that MCF7 induced about 40%, BT549 induced about 23% cell death.

The next series deals with BT549. The experiment in a line: Annexin V/PI staining FACS apoptosis analysis, BT549. Conditions: BT549, 20 μM, 48 h. Format: cell-based, Human. The method, then: as §2
For series [2], the system named is Breast cancer cell lines BT549, T47D, and MCF7. The experiment in a line: Western blotting of survivin and apoptosis markers. Format: cell-based, Human. Conditions: 0, 2.5, 5, 10, and 20 μM, 24 h. The protocol:
Apoptosis by KRCT-1 was confirmed through Western blotting. After separation of 20 μg of protein by SDS-PAGE electrophoresis and transferred to PVDF membrane, the following specific antibodies were used: rabbit polyclonal antibodies cleaved PARP (Asp214) (#9541) and phospho-Chk2 (Thr68) (#2661; Cell Signaling Technology, MA); rabbit monoclonal antibodies caspase3 (#9664), chk2 (#6334S), survivin (#2808S); mouse monoclonal antibody caspase 9 (551246; BD Pharmingen, Calif., USA). In addition, mouse monoclonal antibody (3-actin (C4; Santa Cruz Biotechnology, Calif., USA) was used as a loading control, washed with 1×PBS/0.1% Tween 20, and HRP-binding secondary antibody and improved chemiluminescence detection system was used to detect the binding protein, and an image of the band was obtained using the Amersham Imager 600 system (GE Healthcare Life Science), which is shown in FIG. 5b.
Breast cancer cell lines BT549, T47D, and MCF7 were treated with 0, 2.5, 5, 10, and 20 μM of KRCT-1 in a dose-dependent manner for 24 h each, and the expression level of survivin essential for the survival of cancer cells and the expression levels of an apoptosis markers, clv-PARP, caspase 9 and caspase 3 were checked. According to the concentration of the treated KRCT-1, the expression levels of survivin and pro-caspase 9 in cancer cells were decreased, and it was confirmed that the truncated PARP and caspase3 increased during apoptosis. Through the above results, it was confirmed that apoptosis was activated due to KRCT-1.

Series [3] has as its system breast cancer cell lines BT549, T47D and MCF7. Briefly: Clonogenic assay, combination of KRCT-1 and radiation. Conditions: 2.5 μM KRCT-1 + 2.5 Gy radiation; compared to DMSO group. Format: cell-based, Human. The method, then:
A clonogenic assay was performed to confirm the effect of the combination of KRCT-1 and radiation. To perform clonogenic assay, breast cancer cell lines BT549, T47D and MCF7 were treated with 2.5 μM of KRCT-1 compound, and 2.5 Gy radiation was used using Biobeam GM8000 (Gamma-Gamma-Service Medical GmbH, Leipzig, Germany). The experimental technique for the remaining colony formation was performed in the same manner as in the above Example, and was shown in FIG. 6a. In the group treated with KRCT-1, the radiation treatment effect of the two cancer cell lines was significant compared to the group treated with DMSO, confirming that the number of cancer cell colonies decreased.

For series [4] the test system is unchanged. The experiment in a line: Western blotting, radiation combination effect. Format: cell-based, Human. Conditions: 10 μM + 3 Gy radiation, 30 h. The method, then:
In order to confirm the synergistic effect of radiosensitivity of cancer cell lines through treatment with KRCT-1 through Western blotting experiments, 10 μM of KRCT-1 compound was treated in breast cancer cell lines BT549, T47D and MCF7, and Biobeam GM8000 (Gamma-Gamma-Service Medical GmbH, Leipzig, Germany) was used to culture for 30 h after treatment with 3 Gy radiation. For Western blotting, 20 μg of protein was isolated through SDS-PAGE electrophoresis and transferred to a PVDF membrane. The following specific antibodies were used: rabbit polyclonal antibody phospho-Chk2 (Thr68) (#2661; Cell Signaling Technology, MA); rabbit monoclonal antibody chk2 (#6334S) were used. The remaining conditions of Western blotting were performed in the same manner as in the above Example. […] Through the above results, it was confirmed that apoptosis of cancer cells appeared effectively.

Another series deals with MCF7 cells. The experiment in a line: γ-H2AX foci experiment (DNA damage) with radiation. Format: cell-based, Human. The conditions noted are these: 20 μM for 24 h + 2 Gy radiation, fixed at 1 h; compared to each control group. The method, then:
To determine how KRCT-1 affects DNA damage induced by radiation, a γ-H2AX foci experiment was performed. In the case that single-stranded or double-stranded DNA is cleaved by various DNA damaging agents including radiation, γ-H2AX phosphorylation occurs and nuclear foci are generated in the cell nucleus. Using this as an index, the effect of the combination according to DNA damage was evaluated. After culturing 2.5×10^4 MCF7 cells in a 24-well plate for 48 h, KRCT-1 20 μM was treated for 24 h, and the cells were fixed at 1 h after irradiation with 2 Gy of radiation. Then, after washing with phosphate buffered saline for permeation, 4% paraformaldehyde and 0.2% Triton-X were added and reacted for 10 min each. After 1 h pretreatment with 5% fetal bovine serum, 1:100 dilution of γ-H2AX (05-656; EMD Millipore Corp., MA, USA) antibody to phosphorylated H2AX for was treated for 16 h, and it was washed 3 times with 0.1% TritonX-100/phosphate buffered saline solution (Tritonx-100/PBS). Alexa488-conjugated secondary antibody (AP132JA4, Invitrogen) was reacted for 2 h at room temperature and labeled, and phosphorylated γ-H2AX foci were photographed and analyzed with IN Cell Analyzer 6000 (GE Healthcare Life Science). […] Taken together, in cancer cells, it was confirmed that KRCT-1 is a material that can be effectively used as a radiosensitizer.

For series [5], the target named is T1, Trk-A kinase (Homo sapiens, UniProt P04629). Briefly: Western blotting of Trk-A downstream signaling (phosphorylated ERK, phosphorylated STAT3) in cancer cell lines. Format: cell-based. Conditions: 2.5, 5, 10, 20 μM; FIG. 7c. The protocol:
In cancer cell lines, it was confirmed whether KRCT-1 inhibits the activity of Trk-A kinase to inhibit downstream signaling. In the case that Trk-A is activated by ligand, the MEK/ERK and STAT3 signaling pathways in the cell are activated. Using this as an indicator, changes in phosphorylated ERK and phosphorylated STAT3 were confirmed in the case that cancer cell lines were treated with KRCT-1 concentrations (2.5, 5, 10, 20 μM). For Western blotting, 20 μg of protein was isolated through SDS-PAGE electrophoresis and transferred to PVDF membrane. The following specific antibodies were used: rabbit polyclonal antibody phospho-STAT3 (Tyr705) (ab76315; Abcam, UK), mouse monoclonal antibodies phospho-ERK (Thr202/Tyr204) (sc-514302; Santa Cruz Biotechnology), ERK (sc-7383; Santa Cruz Biotechnology), and STAT3 (sc8019; Santa Cruz Biotechnology) were used. The remaining conditions of Western blotting were performed in the same manner as in the above Example.

Series [6] has as its target T1, Trk-A kinase. Briefly: In vitro kinase assay of Trk-A. Format: biochemical. On the set-up: purchased Eurofins Pharma Discovery Services (commissioned via Goma Biotech). Conditions: serially diluted 3-fold from 100 μM; FIG. 7b. The protocol: To measure the selective reactivity of KRCT-1 to a specific kinase, in vitro kinase assay profiling was commissioned to Goma Biotech (Seoul, Korea), and the enzyme reaction experiment was performed at Eurofins Pharma Discovery Services (Scotland, UK). For kinase profiling, 104 kinase series and 10 μM KRCT-1 were used in the reaction as a broad oncology panel. To obtain the IC50 kinase assay of Trk-A, KRCT-1 serially diluted 3-fold from 100 μM was used.

T1 sequence (P04629 33-796): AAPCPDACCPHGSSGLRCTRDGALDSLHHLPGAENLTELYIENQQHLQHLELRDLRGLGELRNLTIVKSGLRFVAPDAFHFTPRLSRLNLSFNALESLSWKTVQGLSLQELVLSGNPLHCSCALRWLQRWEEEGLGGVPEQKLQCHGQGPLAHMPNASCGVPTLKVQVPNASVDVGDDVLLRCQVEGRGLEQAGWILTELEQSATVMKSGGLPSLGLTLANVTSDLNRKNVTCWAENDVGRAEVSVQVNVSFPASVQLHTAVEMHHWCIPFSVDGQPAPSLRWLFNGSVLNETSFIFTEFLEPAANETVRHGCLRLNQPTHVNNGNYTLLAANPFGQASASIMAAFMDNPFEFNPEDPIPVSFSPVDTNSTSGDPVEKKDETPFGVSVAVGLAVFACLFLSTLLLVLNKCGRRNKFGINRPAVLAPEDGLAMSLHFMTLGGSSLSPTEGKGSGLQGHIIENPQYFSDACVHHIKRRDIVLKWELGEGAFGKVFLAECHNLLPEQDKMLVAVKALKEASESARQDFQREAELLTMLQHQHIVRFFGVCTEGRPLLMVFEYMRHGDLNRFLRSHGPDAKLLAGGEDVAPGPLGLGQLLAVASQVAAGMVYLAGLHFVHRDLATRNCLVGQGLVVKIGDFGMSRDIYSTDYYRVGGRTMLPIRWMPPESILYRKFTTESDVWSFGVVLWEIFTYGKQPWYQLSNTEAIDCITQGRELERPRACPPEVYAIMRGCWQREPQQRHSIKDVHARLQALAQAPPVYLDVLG

On to `CN(C)S(=O)(=O)Nc1cccc(-c2cnn(-c3ccc(C(F)(F)F)cc3)c2)c1` [KRCT-1, N,N-dimethyl-N′-(3-(1-(4-(trifluoromethyl)phenyl)-1H-pyrazol-4-yl)phenyl)azanesulfonamide], for which the “number and size of cell colonies” value in series [1] is recorded as “significantly reduced”. Besides, the “diameter of cancer cell tumorspheres” value with Breast cancer cells MCF7 is given as “significantly reduced”. For the same compound, in the series on BT549 cell line, the “expression of Ki-67 in isolated mouse tumor (Western blotting)” value is on record as “significantly reduced”. In addition, the “tumor volume and size” value in the series on BT549 cell line (4 weeks after transplantation, vs control group) was “smaller tumor volume and size than the control group”. For the same compound, the “body weight of immunodeficient mice” value with BT549 cell line (weight measured 3 times a week) is recorded as “not significantly changed”. For the same compound, the “cell death (Annexin V/PI FACS)” value in the series with MCF7 was “about 40%”. Also, the “cell death (Annexin V/PI FACS)” value with BT549 is given as “about 23%”. Also, in [2], the “truncated PARP” value is reported as “increased” and the “truncated caspase3” value is reported as “increased”. Further, in series [2] (according to concentration), the “expression level of pro-caspase 9” value was “decreased” and the “expression level of survivin” value is “decreased”. In series [3], the “number of cancer cell colonies after radiation” value was “decreased”. Further, in series [4], the “expression level of phosphorylated Chk2 after radiation treatment” value was “increased” and the “expression level of survivin after radiation treatment” value is on record as “decreased”. In the series with MCF7 cells, the “DNA damage (phosphorylated γ-H2AX foci)” value is reported as “DNA damage occurred in relatively many cancer cells”. Besides, the “downstream signaling of Trk-A kinase in cancer cells” value at Trk-A kinase [5] is reported as “inhibited”. For the same compound, on Trk-A kinase [6], the “in vitro Trk-A kinase activity” value was “inhibition”.
